According to ChEMBL document CHEMBL1201862, “PubChem BioAssay data set” (2004):
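Compound exposure: 48 hours, 5 concentrations, 96-well plates. The concentration for 50% growth inhibition is given as GI50.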 The source made the active and inactive calls. No stated cut-off is given here; in the data, active = GI50 up to about 1.1 µM and inactive = higher.

Columns and labels:
Experiment in all cases: growth of human tumour cells (NCI), 48 h
SW-620 = test system: SW-620
HCT-15 = test system: HCT-15
KM12 = test system: KM12
NCI-H23 = test system: NCI-H23
Malme-3M = test system: Malme-3M
IGROV-1 = test system: IGROV-1
SK-OV-3 = test system: SK-OV-3
OVCAR-5 = test system: OVCAR-5
OVCAR-3 = test system: OVCAR-3
UACC-62 = test system: UACC-62
U-251 = test system: U-251
M14 = test system: M14
OVCAR-8 = test system: OVCAR-8
EKVX = test system: EKVX
COLO 205 = test system: COLO 205
CCRF-CEM = test system: CCRF-CEM
LOX IMVI = test system: LOX IMVI
A549 = test system: A549
SNB-19 = test system: SNB-19
TK-10 = test system: TK-10

SMILES	GI50 (SW-620)	GI50 (HCT-15)	GI50 (KM12)	GI50 (NCI-H23)	GI50 (Malme-3M)	GI50 (IGROV-1)	GI50 (SK-OV-3)	GI50 (OVCAR-5)	GI50 (OVCAR-3)	GI50 (UACC-62)	GI50 (U-251)	GI50 (M14)	GI50 (OVCAR-8)	GI50 (EKVX)	GI50 (COLO 205)	GI50 (CCRF-CEM)	GI50 (LOX IMVI)	GI50 (A549)	GI50 (SNB-19)	GI50 (TK-10)
COc1ccc(C(c2ccc(C(C)C)cc(=O)c2O)c2ccc3cccnc3c2O)cc1 (stereo unspecified)	3.68 µM (inactive)	0.449 µM	1.45 µM (inactive)	0.349 µM (active)	0.398 µM (active)	0.425 µM (active)	2.3 µM (inactive)	1.58 µM (inactive)	1.24 µM (inactive)	0.735 µM (active)	0.438 µM (active)	0.933 µM (active)	1.08 µM (active)	1.27 µM (inactive)	1.05 µM (active)	0.604 µM (active)	0.499 µM (active)	0.328 µM (active)	–	–
O=C1c2ccccc2C(O)(C(=O)O)C1(O)CC=C(Cl)Cl (stereo unspecified)	> 125 µM (inactive)	> 125 µM	> 125 µM (inactive)	> 125 µM (inactive)	> 125 µM (inactive)	> 125 µM (inactive)	> 125 µM (inactive)	> 125 µM (inactive)	> 125 µM (inactive)	> 125 µM (inactive)	> 28.2 µM (inactive)	–	> 125 µM (inactive)	> 125 µM (inactive)	> 125 µM (inactive)	> 125 µM (inactive)	> 125 µM (inactive)	> 125 µM (inactive)	> 78.9 µM (inactive)	–
CN(C)/N=N/c1ccc(NC=O)cc1	> 100 µM (inactive)	> 100 µM	> 100 µM (inactive)	–	–	> 100 µM (inactive)	> 100 µM (inactive)	90.4 µM (inactive)	> 100 µM (inactive)	40.6 µM (inactive)	> 100 µM (inactive)	> 100 µM (inactive)	> 100 µM (inactive)	> 100 µM (inactive)	> 100 µM (inactive)	40.7 µM (inactive)	> 100 µM (inactive)	> 100 µM (inactive)	> 100 µM (inactive)	> 100 µM (inactive)
O=c1cc(N2CCCC2)[nH]c(=O)n1-c1ccccc1	> 100 µM (inactive)	> 100 µM	> 100 µM (inactive)	> 100 µM (inactive)	> 100 µM (inactive)	> 100 µM (inactive)	–	> 100 µM (inactive)	–	–	> 100 µM (inactive)	> 100 µM (inactive)	> 100 µM (inactive)	> 100 µM (inactive)	> 100 µM (inactive)	> 100 µM (inactive)	> 100 µM (inactive)	> 100 µM (inactive)	> 100 µM (inactive)	> 100 µM (inactive)
Cc1cc(N(CCC#N)CCC#N)ccc1/C=C(\NC(=O)/C=C/c1ccccc1)C(=O)Nc1ccccc1Cl	> 100 µM (inactive)	> 100 µM	> 100 µM (inactive)	> 100 µM (inactive)	> 100 µM (inactive)	> 100 µM (inactive)	–	> 100 µM (inactive)	> 100 µM (inactive)	> 100 µM (inactive)	59.6 µM (inactive)	> 100 µM (inactive)	> 100 µM (inactive)	> 100 µM (inactive)	> 100 µM (inactive)	> 100 µM (inactive)	> 100 µM (inactive)	> 100 µM (inactive)	> 100 µM (inactive)	–
C=CC1=C(C)c2cc3[nH]c(c4c5nc(cc6[nH]c(cc1n2)c(C)c6CC)C=C5C(=O)C4C(=O)OC)C(CCC(=O)OC/C=C(\C)CCCC(C)CCCC(C)CCCC(C)C)C3C.C=CC1=C(C)c2cc3[nH]c(c4c5nc(cc6[nH]c(cc1n2)c(C=O)c6CC)C=C5C(=O)C4C(=O)OC)C(CCC(=O)OC/C=C(\C)CCCC(C)CCCC(C)CCCC(C)C)C3C (stereo unspecified)	> 100 µM (inactive)	> 100 µM	> 100 µM (inactive)	> 100 µM (inactive)	–	38.9 µM (inactive)	> 100 µM (inactive)	> 100 µM (inactive)	> 100 µM (inactive)	> 100 µM (inactive)	> 100 µM (inactive)	> 100 µM (inactive)	43 µM (inactive)	50.6 µM (inactive)	43.9 µM (inactive)	10 µM (inactive)	> 100 µM (inactive)	> 100 µM (inactive)	> 100 µM (inactive)	> 100 µM (inactive)
CCn1c(=O)c(C(=O)O)c(Cl)c2cc3c(cc21)OCO3	> 100 µM (inactive)	> 100 µM	> 100 µM (inactive)	> 100 µM (inactive)	> 100 µM (inactive)	> 100 µM (inactive)	> 100 µM (inactive)	> 100 µM (inactive)	> 100 µM (inactive)	> 100 µM (inactive)	> 100 µM (inactive)	–	> 100 µM (inactive)	> 100 µM (inactive)	> 100 µM (inactive)	> 100 µM (inactive)	> 100 µM (inactive)	> 100 µM (inactive)	> 100 µM (inactive)	–
CC1CC(C)(O)C2C3(C)CCCC2(COC3=O)C12CCC1(CCOC1=O)O2 (stereo unspecified)	> 250 µM (inactive)	> 250 µM	> 250 µM (inactive)	> 250 µM (inactive)	> 250 µM (inactive)	> 250 µM (inactive)	> 250 µM (inactive)	> 250 µM (inactive)	> 250 µM (inactive)	> 250 µM (inactive)	> 250 µM (inactive)	–	> 250 µM (inactive)	> 250 µM (inactive)	> 250 µM (inactive)	> 250 µM (inactive)	> 250 µM (inactive)	> 250 µM (inactive)	> 250 µM (inactive)	–
COc1ccc(C2=C(N)c3c(Cl)cccc3C2=O)cc1	> 100 µM (inactive)	> 100 µM	> 100 µM (inactive)	32.6 µM (inactive)	> 100 µM (inactive)	> 100 µM (inactive)	55.3 µM (inactive)	> 100 µM (inactive)	> 100 µM (inactive)	> 100 µM (inactive)	49.3 µM (inactive)	> 100 µM (inactive)	53.1 µM (inactive)	> 100 µM (inactive)	> 100 µM (inactive)	> 100 µM (inactive)	> 100 µM (inactive)	> 100 µM (inactive)	22 µM (inactive)	–
CN1Cc2cc3c(cc2-c2ccccc21)OCO3	> 100 µM (inactive)	–	> 100 µM (inactive)	> 100 µM (inactive)	–	> 100 µM (inactive)	> 10 µM (inactive)	> 100 µM (inactive)	> 100 µM (inactive)	> 100 µM (inactive)	> 100 µM (inactive)	> 100 µM (inactive)	> 100 µM (inactive)	> 100 µM (inactive)	> 100 µM (inactive)	> 100 µM (inactive)	> 100 µM (inactive)	> 100 µM (inactive)	> 100 µM (inactive)	> 100 µM (inactive)
O=c1c2ccccc2ncn1COCc1ccccc1	> 100 µM (inactive)	> 100 µM	> 100 µM (inactive)	–	–	> 100 µM (inactive)	> 100 µM (inactive)	> 100 µM (inactive)	> 100 µM (inactive)	> 100 µM (inactive)	> 100 µM (inactive)	> 100 µM (inactive)	> 100 µM (inactive)	> 100 µM (inactive)	> 100 µM (inactive)	> 100 µM (inactive)	> 100 µM (inactive)	> 100 µM (inactive)	> 100 µM (inactive)	> 100 µM (inactive)
CC1(C)N=C(N)N=C(N)N1c1ccc(CCc2ccccc2)cc1	0.301 µM (active)	37.9 µM	1.42 µM (inactive)	1.43 µM (inactive)	2.2 µM (inactive)	0.348 µM (active)	48.4 µM (inactive)	1.92 µM (inactive)	1.79 µM (inactive)	1.02 µM (active)	0.435 µM (active)	–	2.53 µM (inactive)	0.622 µM (active)	1.36 µM (inactive)	1.91 µM (inactive)	0.675 µM (active)	0.46 µM (active)	1.14 µM (inactive)	–
CC(C)CCCC(C)[C@H]1CCC(C2C[C@@H](O)[C@@H]3CC(O)[C@@H](O)C[C@]3(CO)C2=O)[C@]1(C)CCO (stereo partly specified)	23.4 µM (inactive)	28.8 µM	14.3 µM (inactive)	36.1 µM (inactive)	23.1 µM (inactive)	23.3 µM (inactive)	25.8 µM (inactive)	23.2 µM (inactive)	21.4 µM (inactive)	19.2 µM (inactive)	19.4 µM (inactive)	–	> 50.1 µM (inactive)	> 57.8 µM (inactive)	20 µM (inactive)	17 µM (inactive)	20.9 µM (inactive)	34 µM (inactive)	28.4 µM (inactive)	–
Cc1c2ccncc2c(C)c2c1[nH]c1ccccc12 [ELLIPTECINE]	0.36 µM (active)	0.402 µM	0.473 µM (active)	0.656 µM (active)	2.01 µM (inactive)	0.729 µM (active)	1.61 µM (inactive)	1.46 µM (inactive)	0.322 µM (active)	1.48 µM (inactive)	0.771 µM (active)	–	0.406 µM (active)	0.933 µM (active)	0.502 µM (active)	0.411 µM (active)	0.536 µM (active)	0.504 µM (active)	0.826 µM (active)	–
CC(C)c1oc(=O)cc2c1C(O)C1OC(=O)C3(C)C(O)C4OC4C2(C)C13 (stereo unspecified) [NAGILACTONE]	1.45 µM (inactive)	2.07 µM	1.72 µM (inactive)	1.36 µM (inactive)	1.69 µM (inactive)	2.75 µM (inactive)	5.2 µM (inactive)	9.48 µM (inactive)	1.41 µM (inactive)	1.38 µM (inactive)	1.58 µM (inactive)	–	1.75 µM (inactive)	2.19 µM (inactive)	1.13 µM (inactive)	0.817 µM (active)	0.653 µM (active)	2.44 µM (inactive)	0.573 µM (active)	–
